The results in this text go back to EP0068239A2, “Sulfamoylbenzoic acid derivatives and pharmaceutical compositions comprising same” (MITSUI TOATSU CHEMICALS, Inc., priority 1981, dated 1983).

The test system of assay [1] is rats with DOCA/saline-induced hypertension. Put plainly: Hypotensive activity in rats with DOCA/saline-induced hypertension (systolic pressure measured indirectly through the caudal artery). The note with it: 30 mg/kg orally once a day for 5 days, versus initial value; for Percent change of systolic pressure Day 1: measured 4 hour after administration on day 1; for Percent change of systolic pressure Day 3: measured 4 hour after administration on day 3; for Percent change of systolic pressure Day 5: measured 4 hour after administration on day 5. Type of assay: in vivo, male Wistar rats. As for the experimental part:
Evaluation Test 1 (Hypotensive activity in rats with DOCA/saline-induced hypertension]
Rats with DOCA/saline-induced hypertension were prepared according to the method described in an article by H. Selye, C.E. Hall and E.M. Rowly tCanadian Medical Association Journal, Vol. 49, p. 88, 1943). More specifically, 5-weeks-old male Wistar rats, weighing 100 to 120 g, were placed under anesthesia with ether and their left kidney was excised. Thereafter, they were allowed to take saline (a 1% aqueous solution of sodium chloride) instead of water. In addition, 10 mg/kg of deoxycorticosterone acetate was subcutaneously administered once a week. After 4-6 weeks, these rats developed hypertension.
Blood pressure was measured according to the method described in an article by M. Gerold and H. Tschirky (Arzneimittelforschung, Vol. 18, p. 1285, 1968). More specifically, using a Model 8002 or 8005 BP Recorder (W+W Electronic Co.), the systolic pressure of each rat was indirectly measured through the caudal artery. The rats were placed in a high-temperature environment (45±2°C) prior to every measurement. Among the rats (aged 15-17 weeks) with DOCA/saline-induced hypertension, only those showing a systolic pressure of 170 mmHg or above were used in groups of 3 or 4.
A compound to be tested was suspended in a 0.2% solution of carboxymethyl cellulose and administered orally to the rats in a dose of 30 mg/kg. This administration was performed once a day and continued for 5 days. Blood pressure measurements were made before the administration of the compound and 4 hour after the administration on days 1, 3, and 5.

The subject of another assay is anesthetized dogs. The assay can be described thus: Diuretic effect in anesthetized dogs (urine collection via ureter cannulae). It is filed as in vivo, Adult mongrel dogs. Particulars: for ED100: 10 min, dose at which urine collected for 10 minutes after administration is twice the amount collected for 10 minutes before; for diuretic effect: high dose of 2 mg/kg. As for the experimental part:
Evaluation Test 2 [Diuretic effect in anesthetized dogs3
Adult mongrel dogs of either sex were used in this experiment. Each dog was anesthetized by intravenous administration of 30 mg/kg of pentobarbital sodium. Thereafter, a midline incision was made in the lower abdominal region and polyethylene cannulae for the collection of urine were inserted into the right and left ureters. In addition, a polyethylene cannula was inserted into the left femoral vein, through which 50 ml of physiological saline was administered. Thirty minutes after that, physiological saline was continuously infused at a rate of 1.5 ml/min. The experiment was started after the rate of urine excretion became constant. A compound to be tested was dissolved in dimethylformamide and administered intravenously by way of the right femoral vein, and blood pressure was surgically monitored by way of the right femoral artery.
The ED100 of the compound was defined as the dose at which the amount of urine collected for 10 minutes after the administration of the compound was equal to twice the amount of urine collected for 10 minutes before the administration.

The mark [2] stands for this setting: Canis lupus familiaris, intravenous.

Structures are written as SMILES.

Turning to `CC1Cc2ccccc2N1NC(=O)c1cc(S(N)(=O)=O)c(Cl)cc1Cl` (stereo not shown) [Example 1, N-(2,4-dichloro-5-sulfamoylbenzamido)-2-methylindoline], in assay [1], the “Percent change of systolic pressure Day 1” value is reported as -12%, the “Percent change of systolic pressure Day 3” value was -25% and the “Percent change of systolic pressure Day 5” value is -28%. This compound gave an ED100 in the assay on anesthetized dogs (setting [2]) above 2 mg/kg. In addition, the diuretic effect result in the assay with anesthetized dogs (intravenous) is “little diuretic effect”.

`CC1Cc2ccccc2N1NC(=O)c1ccc(Cl)c(S(N)(=O)=O)c1` (stereo not shown) [Indapamide, N-(3-sulfamoyl-4-chlorobenzamido)-2-methylindoline, reference compound]: in assay [1], the “Percent change of systolic pressure Day 1” value is -13%, the “Percent change of systolic pressure Day 3” value is reported as -20% and the “Percent change of systolic pressure Day 5” value was -22%. For the same compound, the ED100 in the assay with anesthetized dogs (setting [2]) was determined as 0.2 mg/kg. The minimal effective dose in the assay on anesthetized dogs (Canis lupus familiaris, intravenous, anesthetized dogs, read-out: dose at which the compound began to exert a diuretic effect) stood at 0.05 mg/kg. Further, the “increase of urine excretion (factor)” value in the assay on anesthetized dogs (intravenous dose of 0.2 mg/kg) is reported as “approximately 2”.

In the case of `CC1Cc2ccccc2N1NC(=O)c1cc(S(N)(=O)=O)c(Cl)cc1Br` (stereo not shown) [Example 2, N-(2-bromo-4-chloro-5-sulfamoylbenzamido)-2-methylindoline], in assay [1], the “Percent change of systolic pressure Day 1” value is -12%, the “Percent change of systolic pressure Day 3” value is given as -24% and the “Percent change of systolic pressure Day 5” value is listed as -25%. The ED100 in the assay on anesthetized dogs (setting [2]) was above 2 mg/kg. In addition, the diuretic effect entry in the assay with anesthetized dogs (intravenous) is reported as “little diuretic effect”.
